According to paper PMC5736175, “Nicotinic alpha 7 receptor agonists EVP-6124 and BMS-933043, attenuate scopolamine-induced deficits in visuo-spatial paired associates learning” (PLoS ONE, 2017):
Where “and” joins values, the source holds several entries; their conditions need not be identical. Equal values may be shown once. Entries after “also recorded” stand apart in the source; their conditions may differ.

Columns and labels:
human nAChR α7 [1] = system: human nAChR α7; set-up: method as in PMID 20959364; settings: QM7 cells expressing human nAChR α7; cited from earlier work
[2] = system: scopolamine-treated cynomolgus monkeys; assay: Scopolamine-induced impairment of vsPAL task performance, treatment + scopolamine; assay type: in vivo, cynomolgus monkeys (Macaca Fasicularis)
Experimental: Doses cited refer to the free base form of the compounds. […] All drugs were administered intramuscularly (i.m.) in a dosing volume of 0.1–0.2 ml/kg.
On days when compound testing occurred, approximately half the cohort received one dose and the remainder another dose of the same compound and therefore dose order was staggered between animals. With the exception of EVP-6124, all other compounds were tested in a single dose response study.
Cohen’s d values of >0.2, >0.5 and >0.8 are described using the conventions of small, medium, and large effects, respectively.

[3] = Plasma pharmacokinetics in satellite animals (LC-MS/MS), 60 min after i.m. dose; settings: for concentration at 60 min: cynomolgus monkey, plasma, intramuscular
Experimental: For all compounds, plasma pharmacokinetic studies were conducted in a separate cohort of cynomolgus monkeys (N = 2–3 subjects per dose) before beginning vsPAL testing to help guide dose selection. Blood samples were obtained with the animals awake and sitting in a primate chair.
Plasma concentrations of test compounds were determined using LC-MS/MS assays. In brief, 50 μL plasma and sample containing compounds was extracted by protein precipitation method with 150 μL acetonitrile containing an internal standard. A 5 μL sample of supernatant was injected into the LC-MS/MS system. Analytes were separated by reversed phase chromatography and detection of each analyte was achieved through selected reaction monitoring mode of mass spectrometry. Samples were quantified by calculated peak area ratio of analyte and internal standard against a calibration curve.

human nAChR α7 [4] = system: human nAChR α7; set-up: method as in PMID 20959364, PMID 22085888; settings: xenopus oocytes expressing human nAChR α7; cited from earlier work
5-HT3 receptor = settings: cited from earlier work
[5] = RG3487 0.03 mg/kg + Individualized Scopolamine, MEAN of 8 animals
[6] = RG3487 0.03 mg/kg + Individualized Scopolamine, individual animals, 0.03 mg/kg
[7] = RG3487 0.03 mg/kg + scopolamine, MEAN of 8 animals
[8] = RG3487 0.03 mg/kg + scopolamine, individual animals, 0.03 mg/kg
[9] = RG3487 0.1 mg/kg + Individualized Scopolamine, MEAN of 8 animals
[10] = RG3487 0.1 mg/kg + Individualized Scopolamine, individual animals, 0.1 mg/kg
[11] = RG3487 0.1 mg/kg + scopolamine, MEAN of 8 animals
[12] = RG3487 0.1 mg/kg + scopolamine, individual animals, 0.1 mg/kg
[13] = RG3487 0.3 mg/kg + scopolamine, MEAN of 8 animals
[14] = RG3487 0.3 mg/kg + scopolamine, individual animals, 0.3 mg/kg
[15] = RG3487 1.0 mg/kg + scopolamine, MEAN of 8 animals
[16] = RG3487 1.0 mg/kg + scopolamine, individual animals, 1 mg/kg
[17] = all doses of the study, for EVP-6124 study (1)
[18] = compound 0.03 mg/kg i.m. + Scopolamine
[19] = compound 0.10 mg/kg i.m. + Scopolamine
[20] = compound 0.30 mg/kg i.m. + Scopolamine
[21] = compound 1.00 mg/kg i.m. + Scopolamine

Cl.O=C(N[C@@H]1CN2CCC1CC2)c1n[nH]c2ccccc12 [RG3487, N-[(3S)-1-Azabicyclo[2.2.2]oct-3-yl]-1H-indazole-3-carboxamide HCl]
maximal peak current relative to acetylcholine (human nAChR α7 [1]): 69%
net charge relative to acetylcholine (human nAChR α7 [1]): 53%
Initial Correct, 3 Stimuli [2, 5]: 43.8%
Initial Correct, 4 Stimuli [2, 5]: 25.0%
Initial Correct, Overall Mean % Correct [2, 5]: 50.8%
Initial correct, 2 Stimuli [2, 5]: 83.8%
Initial Correct, 3 Stimuli [2, 6]: 60.0% and 20.0% and 40.0% and 30.0% and 90.0% and 10.0% and 80.0%
Initial Correct, 4 Stimuli [2, 6]: 30.0% and 0.0% and 50.0% and 40.0%
Initial Correct, Overall Mean % Correct [2, 6]: 60.0% and 36.7% and 46.7% and 76.7% and 40.0% and 30.0% and 70.0%
Initial correct, 2 Stimuli [2, 6]: 90.0% and 70.0% and 60.0% and 100.0% and 80.0%
Eventual Correct, 4 Stimuli ([2]; RG3487 0.03 mg/kg + scopolamine, MEAN): 59.5%
% Completion [2, 7]: 73.5%
Average Response Latency (Avg Rsp Lat) [2, 7]: 2136.0 ms
Eventual Correct, 2 Stimuli [2, 7]: 98.8%
Eventual Correct, 3 Stimuli [2, 7]: 83.8%
Eventual Correct, Overall Mean % Correct [2, 7]: 78.2%
% Completion [2, 8]: 66.2% and 53.1% and 100.0% and 69.9% and 90.5% and 22.8% and 97.3% and 88.2%
Average Response Latency (Avg Rsp Lat) [2, 8]: 2657.3 ms and 2531.6 ms and 1590.6 ms and 1325.7 ms and 2502.3 ms and 1742.8 ms and 2670.3 ms and 2067.1 ms
Eventual Correct, 2 Stimuli [2, 8]: 100.0% and 90.0%
Eventual Correct, 3 Stimuli [2, 8]: 100.0% and 60.0% and 70.0% and 50.0% and 90.0%
Eventual Correct, 4 Stimuli [2, 8]: 50.0% and 0.0% and 90.0% and 70.0% and 100.0% and 16.7%
Eventual Correct, Overall Mean % Correct [2, 8]: 83.3% and 50.0% and 96.7% and 80.0% and 100.0% and 68.9%
Initial Correct, 3 Stimuli [2, 9]: 47.5%
Initial Correct, 4 Stimuli [2, 9]: 13.8%
Initial Correct, Overall Mean % Correct [2, 9]: 50.4%
Initial correct, 2 Stimuli [2, 9]: 90.0%
Initial Correct, 3 Stimuli [2, 10]: 70.0% and 10.0% and 60.0% and 50.0% and 80.0% and 40.0% and 30.0%
Initial Correct, 4 Stimuli [2, 10]: 20.0% and 0.0% and 30.0% and 10.0% and 50.0%
Initial Correct, Overall Mean % Correct [2, 10]: 63.3% and 30.0% and 46.7% and 56.7% and 43.3%
Initial correct, 2 Stimuli [2, 10]: 100.0% and 80.0% and 90.0%
% Completion [2, 11]: 75.6%
Average Response Latency (Avg Rsp Lat) [2, 11]: 2202.7 ms
Eventual Correct, 2 Stimuli [2, 11]: 100.0%
Eventual Correct, 3 Stimuli [2, 11]: 91.3%
Eventual Correct, 4 Stimuli [2, 11]: 48.1%
Eventual Correct, Overall Mean % Correct [2, 11]: 79.8%
Eventual Correct, 2 Stimuli ([2]; RG3487 0.1 mg/kg + scopolamine, individual animals): 100.0%
% Completion [2, 12]: 58.8% and 65.1% and 100.0% and 88.7% and 67.1% and 35.0% and 91.9% and 98.1%
Average Response Latency (Avg Rsp Lat) [2, 12]: 2536.1 ms and 2248.5 ms and 1598.6 ms and 1289.8 ms and 2048.9 ms and 2712.3 ms and 2472.3 ms and 2715.2 ms
Eventual Correct, 3 Stimuli [2, 12]: 100.0% and 80.0% and 70.0%
Eventual Correct, 4 Stimuli [2, 12]: 50.0% and 16.7% and 80.0% and 70.0% and 40.0% and 11.1% and 100.0%
Eventual Correct, Overall Mean % Correct [2, 12]: 83.3% and 65.6% and 93.3% and 90.0% and 80.0% and 63.7% and 62.2% and 100.0%
% Completion [2, 13]: 74.7%
Average Response Latency (Avg Rsp Lat) [2, 13]: 2047.1 ms
Initial Correct, 3 Stimuli [2, 13]: 42.5%
Initial Correct, 4 Stimuli [2, 13]: 20.4%
Initial Correct, Overall Mean % Correct [2, 13]: 48.9%
Initial correct, 2 Stimuli [2, 13]: 83.8%
% Completion [2, 14]: 48.2% and 79.1% and 98.4% and 87.1% and 95.1% and 24.7% and 100.0% and 65.1%
Average Response Latency (Avg Rsp Lat) [2, 14]: 1983.4 ms and 2543.8 ms and 1430.4 ms and 1376.1 ms and 2172.3 ms and 1933.4 ms and 2432.3 ms and 2505.1 ms
Initial Correct, 3 Stimuli [2, 14]: 30.0% and 70.0% and 0.0% and 40.0%
Initial Correct, 4 Stimuli [2, 14]: 0.0% and 12.5% and 30.0% and 10.0% and 60.0% and 20.0%
Initial Correct, Overall Mean % Correct [2, 14]: 43.3% and 37.5% and 63.3% and 76.7% and 20.0% and 46.7% and 60.0%
Initial correct, 2 Stimuli [2, 14]: 100.0% and 70.0% and 90.0% and 40.0%
% Completion [2, 15]: 78.8%
Average Response Latency (Avg Rsp Lat) [2, 15]: 2200.2 ms
Eventual Correct, 2 Stimuli [2, 15]: 100.0%
Eventual Correct, 3 Stimuli [2, 15]: 85.0%
Eventual Correct, 4 Stimuli [2, 15]: 54.2%
Eventual Correct, Overall Mean % Correct [2, 15]: 79.7%
Initial Correct, 3 Stimuli [2, 15]: 48.8%
Initial Correct, 4 Stimuli [2, 15]: 22.2%
Initial Correct, Overall Mean % Correct [2, 15]: 49.5%
Initial correct, 2 Stimuli [2, 15]: 77.5%
Eventual Correct, 2 Stimuli ([2]; RG3487 1.0 mg/kg + scopolamine, individual animals): 100.0%
% Completion [2, 16]: 70.4% and 84.7% and 100.0% and 97.1% and 94.2% and 27.7% and 96.4% and 60.3%
Average Response Latency (Avg Rsp Lat) [2, 16]: 2560.1 ms and 2640.7 ms and 1701.5 ms and 1446.7 ms and 1640.8 ms and 2013.9 ms and 2805.9 ms and 2791.8 ms
Eventual Correct, 3 Stimuli [2, 16]: 100.0% and 70.0% and 80.0% and 90.0%
Eventual Correct, 4 Stimuli [2, 16]: 80.0% and 33.3% and 50.0% and 70.0% and 16.7%
Eventual Correct, Overall Mean % Correct [2, 16]: 93.3% and 77.8% and 73.3% and 83.3% and 90.0% and 62.2% and 71.1% and 86.7%
Initial Correct, 3 Stimuli [2, 16]: 70.0% and 50.0% and 20.0% and 80.0% and 30.0%
Initial Correct, 4 Stimuli [2, 16]: 30.0% and 11.1% and 10.0% and 50.0% and 0.0% and 16.7%
Initial Correct, Overall Mean % Correct [2, 16]: 66.7% and 37.0% and 30.0% and 60.0% and 70.0% and 33.3% and 38.9%
Initial correct, 2 Stimuli [2, 16]: 100.0% and 50.0% and 60.0% and 80.0% and 70.0%
Holm-Sidak Post-Hoc, Treatment+Scopolamine differs from Vehicle+Scopolamine: percent correct on initial attempt, 3-stimuli ([2]; all doses of the study): n.s.
Holm-Sidak Post-Hoc, Treatment+Scopolamine differs from Vehicle+Scopolamine: Choice Response Latency [2, 17]: n.s.
Holm-Sidak Post-Hoc, Treatment+Scopolamine differs from Vehicle+Scopolamine: Percent Task Completed [2, 17]: n.s.
Holm-Sidak Post-Hoc, Treatment+Scopolamine differs from Vehicle+Scopolamine: percent correct on initial attempt, 2-stimuli [2, 17]: n.s.
Holm-Sidak Post-Hoc, Treatment+Scopolamine differs from Vehicle+Scopolamine: percent correct on initial attempt, 4 stimuli [2, 17]: n.s.
Percent Correct on Initial Attempt (SEM), 2 stimuli [2, 18]: 83.8% (4.6%)
Percent Correct on Initial Attempt (SEM), 3 stimuli [2, 18]: 43.8% (10.5%)
Percent Correct on Initial Attempt (SEM), 4 stimuli [2, 18]: 25.0% (7.8%)
Percent Correct on Initial Attempt (SEM), 2 stimuli [2, 19]: 90.0% (3.3%)
Percent Correct on Initial Attempt (SEM), 3 stimuli [2, 19]: 47.5% (8.0%)
Percent Correct on Initial Attempt (SEM), 4 stimuli [2, 19]: 13.8% (6.5%)
Percent Correct on Initial Attempt (SEM), 2 stimuli [2, 20]: 83.8% (7.1%)
Percent Correct on Initial Attempt (SEM), 3 stimuli [2, 20]: 42.5% (9.0%)
Percent Correct on Initial Attempt (SEM), 4 stimuli [2, 20]: 20.4% (7.5%)
Percent Correct on Initial Attempt (SEM), 2 stimuli [2, 21]: 77.5% (6.2%)
Percent Correct on Initial Attempt (SEM), 3 stimuli [2, 21]: 48.8% (8.3%)
Percent Correct on Initial Attempt (SEM), 4 stimuli [2, 21]: 22.2% (5.6%)
effect on scopolamine-induced impairment of eventual accuracy ([2]; dose range 0.03-1.0 mg/kg i.m.): not efficacious; also recorded: failed to improve eventual accuracy; also recorded: no reversal
nM total compound in plasma from satellite animals, 60 min ([3]; 0.10 mg/kg i.m., individual subjects): 74.4 nM
nM total compound in plasma from satellite animals, 60 min ([3]; 0.30 mg/kg i.m., individual subjects): 132.0 nM
nM total compound in plasma from satellite animals, 60 min ([3]; 1.00 mg/kg i.m., individual subjects): 305.0 nM
concentration at 60 min ([3]; 0.1 mg/kg, nM total compound in plasma from satellite animals, 60 min, 0.10 mg/kg i.m., individual subjects): 42.9 nM
concentration at 60 min ([3]; 0.1 mg/kg, nM total compound in plasma from satellite animals, 60 min, 0.10 mg/kg i.m., mean): 58.7 nM
concentration at 60 min ([3]; 0.3 mg/kg, nM total compound in plasma from satellite animals, 60 min, 0.30 mg/kg i.m., individual subjects): 114 nM
concentration at 60 min ([3]; 0.3 mg/kg, nM total compound in plasma from satellite animals, 60 min, 0.30 mg/kg i.m., mean): 123 nM
concentration at 60 min ([3]; 1 mg/kg, nM total compound in plasma from satellite animals, 60 min, 1.00 mg/kg i.m., individual subjects): 595 nM
concentration at 60 min ([3]; 1 mg/kg, nM total compound in plasma from satellite animals, 60 min, 1.00 mg/kg i.m., mean): 450 nM
concentration at 60 min ([3]; exposures (predicted and measured), 0.03-1 mg/kg im dose range): 15 to 450 nM
concentration at 60 min ([3]; mean plasma concentrations, satellite animals 60 min post-administration, 0.1-1.0 mg/kg dose range): 58.7 to 450 nM
maximal peak current, % of the acetylcholine response (human nAChR α7 [4]): 63%
5-HT3 receptor antagonism (5-HT3 receptor): potent 5-HT3 receptor antagonists
